This note sets out measurements from patent publication US20140323504A1, “Pyrazolo[4,3-c]Pyridine Derivatives As Kinase Inhibitors” (Cellzome Limited, priority 2011, published 2014).

Experiment [1] deals with STAT5 phosphorylation in IL-2 stimulated YT cells. The experiment is described as follows: pSTAT5 cell assay (IL-2 stimulated YT cells, AlphaScreen). In kind it is cell-based. The note with it: IL-2 stimulated human YT cells, 1 h compound incubation. The source says:
STAT5 phosphorylation represents one of the proximal events in the signalling cascade downstream of JAK3 activation. Therefore STAT5 phosphorylation is an appropriate readout to assess the mechanistic effect of JAK3 inhibition. Stimulation of human YT cells, an NK-like cell line, with interleukin-2 (IL-2) results in phosphorylation of STATS at tyrosine residue 694 (Tyr694) that can be quantitatively measured by immunodetection with specific antibodies and an appropriate detection method, in this case AlphaScreen assay technology.
Human YT cells were grown in RPMI medium (Lonza, BE12-167) with 2 mM L-Glutamine (Invitrogen, 25030-024) and 10% heat-inactivated FBS (Invitrogen, 10106-169) and kept in a humidified incubator (37° C., 5% CO2). Cells were harvested by centrifugation, washed once with HBSS (Invitrogen, 14180-046), resuspended in HESS at 1.5×10^6 cells/ml and 0.9×10^4 cells were seeded in 6 μl per well in a 96 well White plate (PerkinElmer, 6005569).
Test compounds were dissolved in DMSO and a 1:3 dilution series (9 steps) was prepared. To generate a dose response curve, […] of fourfold concentrated compound in 4% DMSO/HBSS were added to each cell sample in the 96 well plate resulting in a final DMSO concentration of 1% DMSO. Cells were incubated for one hour in a humidified incubator (37° C., 5% CO2). To each well 3 μl of a fourfold concentrated IL-2 solution (Recombinant human IL-2, Peprotech 200-02; 120 nM solution in HBSS) was added and incubated for 30 minutes at room temperature. Cells were lysed by adding 3 μl of 5× lysis buffer (SureFire lysis buffer; Perkin Elmer, TGRS5S10K) and incubated for 10 minutes at room temperature with gentle shaking.
For signal detection by AlphaScreen® technology the SureFire phospho-STAT5 (Tyr694Tyr699) kit was used according to instructions provided by the manufacturer (Perkin Elmer, TGRS5S10K). Acceptor beads were added as recommended by the manufacturer (Reactivation buffer/Activation buffer/Acceptor beads at a ratio of 40:10:1) and incubated at room temperature for 1.5 hours with gentle shaking. Then donor beads were added as recommended (Dilution buffer/Donor beads at a ratio of 20:1) and incubated at room temperature for 1.5 hours with gentle shaking. Plates were read on an Envision instrument (Perkin Elmer) with the AlphaScreen protocol. Data were analysed in BioAssay using the nonlinear regression for a sigmoidal dose-response with a variable slope.

Experiment [2] addresses T1, JAK2 (Homo sapiens, UniProt O60674).
T1 construct: endogenous in cells; host or cells: mixed Molt4/Ramos cell lysate (1:2)
Briefly: Kinobeads assay with antibody detection, JAK2. In kind it is binding. The settings on record: mixed Molt4/Ramos lysate, read-out: JAK2 inhibition value (IC50). How it is done:
(§1) The compounds of the present invention as described in the previous examples were tested in a Kinobeads™ assay as described for ZAP-70 (WO-A 2007/137867). Briefly, test compounds (at various concentrations) and the affinity matrix with the immobilized aminopyrido-pyrimidine ligand 24 were added to cell lysate aliquots and allowed to bind to the proteins in the lysate sample. After the incubation time the beads with captured proteins were separated from the lysate. Bound proteins were then eluted and the presence of JAK1; JAK2, JAK3 and TYK2 was detected and quantified using specific antibodies in a dot blot procedure and the Odyssey infrared detection system. Dose response curves for individual kinases were generated and IC50 values calculated. Kinobeads™ assays for ZAP-70 (WO-A 2007/137867) and for kinase selectivity profiling (WO-A 2006/134056) have been previously described.
(§2) 5×DP buffer: 250 mM Tris-HCl pH 7.4, 25% Glycerol, 7.5 mM MgCl2, 750 mM NaCl, 5 mM Na3VO4; filter the 5×DP buffer through a 0.22 μm filter and store in aliquot at −80° C. The 5×DP buffer is diluted with H2O to 1×DP buffer containing 1 mM DTT and 25 mM NaF.
(§3) Stock solutions of test compounds were prepared in DMSO. In a 96 well plate 30 μL solution of diluted test compounds at 5 mM in DMSO were prepared. Starting with this solution a 1:3 dilution series (9 steps) was prepared. For control experiments (no test compound) a buffer containing 2% DMSO was used.
(§4) Molt4 cells (ATCC catalogue number CRL-1582) and Ramos cells (ATCC catalogue number CRL-1596) were grown in 1 L Spinner flasks (Integra Biosciences, #182101) in suspension in RPMI 1640 medium (Invitrogen, #21875-034) supplemented with 10% Fetal Bovine Serum (Invitrogen) at a density between 0.15×10^6 and 1.2×10^6 cells/mL. Cells were harvested by centrifugation, washed once with 1×PBS buffer (Invitrogen, #14190-094) and cell pellets were frozen in liquid nitrogen and subsequently stored at −80° C. Cells were homogenized in a Potter S homogenizer in lysis buffer: 50 mM Tris-HCl, 0.8% NP40, 5% glycerol, 150 mM NaCl, 1.5 mM MgCl2, 25 mM NaF, 1 mM sodium vanadate, 1 mM DTT, pH 7.5. One complete EDTA-free tablet (protease inhibitor cocktail, Roche Diagnostics, 1873580) per 25 mL buffer was added. The material was dounced 10 times using a mechanized POTTER S, transferred to 50 mL falcon tubes, incubated for 30 minutes on ice and spun down for 10 minutes at 20,000 g at 4° C. (10,000 rpm in Sorvall SLA600, precooled). The supernatant was transferred to an ultracentrifuge (UZ)-polycarbonate tube (Beckmann, 355654) and spun for 1 hour at 100.000 g at 4° C. (33.500 rpm in Ti50.2, precooled). The supernatant was transferred again to a fresh 50 mL falcon tube, the protein concentration was determined by a Bradford assay (BioRad) and samples containing 50 mg of protein per aliquot were prepared. The samples were immediately used for experiments or frozen in liquid nitrogen and stored frozen at −80° C.
(§5) Cell lysate (approximately 50 mg protein per plate) was thawed in a water bath at room temperature and then stored on ice. To the thawed cell lysate 1×DP 0.8% NP40 buffer containing protease inhibitors (1 tablet for 25 mL buffer; EDTA-free protease inhibitor cocktail; Roche. Diagnostics 1873580) was added in order to reach a final protein concentration of 10 mg/mL total protein. The diluted cell lysate was stored on ice. Mixed Molt4Ramos lysate was prepared by combining one volume of Molt4 lysate and two volumes of Ramos lysate (ratio 1:2).
(§6) Plates were sealed and incubated for 3 hours in a cold room on a plate shaker (Heidolph tiramax 1000) at 750 rpm. Afterwards the plate was washed 3 times with 230 μL washing buffer (1×DP 0.4% NP40). The filter plate was placed on top of a collection plate (Greiner bio-one, PP-microplate 96 well V-shape, 65120) and the beads were then eluted with 20 μL of sample buffer (100 mM Tris, pH 7.4, 4% SDS, 0.00025% bromophenol blue, 20% glycerol, 50 mM DTT). […]

The target in experiment [3] is T2, JAK1 (Homo sapiens, UniProt P23458).
T2 construct: endogenous in cells; host or cells: mixed Molt4/Ramos cell lysate (1:2)
T2 sequence (P23458 whole entry): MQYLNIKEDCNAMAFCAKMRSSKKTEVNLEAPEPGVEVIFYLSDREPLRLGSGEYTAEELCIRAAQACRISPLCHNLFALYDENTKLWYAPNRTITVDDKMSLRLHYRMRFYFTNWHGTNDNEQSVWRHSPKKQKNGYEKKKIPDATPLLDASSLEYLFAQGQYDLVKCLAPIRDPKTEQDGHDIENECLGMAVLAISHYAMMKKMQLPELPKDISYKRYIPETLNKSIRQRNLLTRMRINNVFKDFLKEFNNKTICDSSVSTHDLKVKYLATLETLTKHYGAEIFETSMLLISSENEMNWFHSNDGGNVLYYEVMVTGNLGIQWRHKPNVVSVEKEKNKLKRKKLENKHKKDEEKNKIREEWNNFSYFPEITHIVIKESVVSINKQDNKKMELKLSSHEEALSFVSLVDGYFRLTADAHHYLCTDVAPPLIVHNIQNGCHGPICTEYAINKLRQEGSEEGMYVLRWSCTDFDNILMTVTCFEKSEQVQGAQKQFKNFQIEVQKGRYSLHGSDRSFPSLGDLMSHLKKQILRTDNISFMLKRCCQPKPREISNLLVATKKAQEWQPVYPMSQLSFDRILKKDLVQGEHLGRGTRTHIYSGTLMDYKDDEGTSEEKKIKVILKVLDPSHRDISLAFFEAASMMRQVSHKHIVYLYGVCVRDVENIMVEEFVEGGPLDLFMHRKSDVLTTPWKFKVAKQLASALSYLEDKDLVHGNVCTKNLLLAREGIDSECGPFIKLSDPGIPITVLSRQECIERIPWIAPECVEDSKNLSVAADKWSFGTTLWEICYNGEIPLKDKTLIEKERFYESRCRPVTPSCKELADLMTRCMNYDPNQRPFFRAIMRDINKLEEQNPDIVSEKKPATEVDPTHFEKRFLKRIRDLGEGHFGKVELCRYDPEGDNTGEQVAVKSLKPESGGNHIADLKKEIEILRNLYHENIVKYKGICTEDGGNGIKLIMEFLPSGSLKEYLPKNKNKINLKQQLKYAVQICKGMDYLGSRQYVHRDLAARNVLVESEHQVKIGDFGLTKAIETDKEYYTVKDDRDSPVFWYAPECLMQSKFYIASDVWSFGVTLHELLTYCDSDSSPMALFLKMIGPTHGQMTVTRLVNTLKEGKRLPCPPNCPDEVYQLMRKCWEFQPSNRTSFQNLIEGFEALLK
Briefly: Kinobeads assay with antibody detection, JAK1. In kind it is binding. The settings on record: mixed Molt4/Ramos lysate, read-out: JAK1 inhibition value (IC50). How it is done: as §1, §2, §3, §4, §5, §6

pIC50: −log10 of the molar value.

T1 sequence (O60674 whole entry): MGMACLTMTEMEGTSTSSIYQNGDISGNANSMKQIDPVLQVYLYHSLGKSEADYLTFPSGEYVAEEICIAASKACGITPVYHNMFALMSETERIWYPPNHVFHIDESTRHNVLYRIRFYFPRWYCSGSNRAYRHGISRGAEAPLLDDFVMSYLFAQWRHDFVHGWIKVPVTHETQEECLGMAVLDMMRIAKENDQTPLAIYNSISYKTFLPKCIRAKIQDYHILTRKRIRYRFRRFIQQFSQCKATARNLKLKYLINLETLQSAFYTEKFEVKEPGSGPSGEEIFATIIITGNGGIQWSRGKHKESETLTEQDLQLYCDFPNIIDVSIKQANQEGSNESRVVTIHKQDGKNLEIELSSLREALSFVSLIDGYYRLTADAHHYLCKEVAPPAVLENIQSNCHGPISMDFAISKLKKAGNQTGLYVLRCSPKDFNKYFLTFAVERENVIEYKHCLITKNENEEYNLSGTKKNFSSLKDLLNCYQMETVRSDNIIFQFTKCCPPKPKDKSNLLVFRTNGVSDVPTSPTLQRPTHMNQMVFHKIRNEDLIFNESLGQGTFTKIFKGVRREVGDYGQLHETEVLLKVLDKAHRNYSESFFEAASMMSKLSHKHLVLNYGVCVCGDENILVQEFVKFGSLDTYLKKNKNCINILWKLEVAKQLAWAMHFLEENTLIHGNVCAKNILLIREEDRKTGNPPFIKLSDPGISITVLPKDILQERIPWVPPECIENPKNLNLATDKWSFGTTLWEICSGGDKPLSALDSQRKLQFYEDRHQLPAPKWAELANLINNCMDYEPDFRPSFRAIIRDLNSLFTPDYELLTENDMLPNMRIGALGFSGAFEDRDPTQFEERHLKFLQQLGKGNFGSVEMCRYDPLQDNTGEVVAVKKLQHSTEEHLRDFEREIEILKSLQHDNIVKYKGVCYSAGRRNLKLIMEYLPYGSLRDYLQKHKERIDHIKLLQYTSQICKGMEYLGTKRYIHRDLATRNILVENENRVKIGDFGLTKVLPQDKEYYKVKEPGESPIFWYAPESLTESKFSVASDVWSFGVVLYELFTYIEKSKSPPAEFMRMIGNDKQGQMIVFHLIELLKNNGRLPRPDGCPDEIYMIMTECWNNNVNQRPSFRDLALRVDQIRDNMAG

As to `C#CC(=O)Nc1cccc(Cn2ncc3cnc(Nc4cnn(C)c4)nc32)c1` [Example 3, N-(3-((6-((1-Methyl-1H-pyrazol-4-yl)amino)-1H-pyrazolo[3,4-d]pyrimidin-1-yl)methyl)phenyl)propiolamide], the pIC50 in experiment [1] is 7.48; in experiment [2] it was less than 5.00; in experiment [3], less than 5.00.
As for `C=CS(=O)(=O)Nc1cccc(Cn2ccc3cnc(Nc4cnn(C)c4)nc32)c1` [Example 7, N-(3-((2-((1-Methyl-1H-pyrazol-4-yl)amino)-7H-pyrrolo[2,3-d]pyrimidin-7-yl)methyl)phenyl)ethenesulfonamide], the pIC50 in experiment [1] was 7.10; in experiment [2], less than 5.00; in experiment [3], 5.11.
Turning to `C=CC(=O)Nc1cc(Cn2ncc3cnc(Nc4cnn(C)c4)nc32)ccc1F` [Example 2, […]], the pIC50 in experiment [1] is 6.42; in experiment [2], less than 5.00; in experiment [3], less than 5.00.
As to `CC(=O)Nc1cccc(Cn2ncc3cnc(Nc4cnn(C)c4)nc32)c1` [compound 2, N-(3-((6-((1-methyl-1H-pyrazol-4-yl)amino)-1H-pyrazolo[3,4-d]pyrimidin-1-yl)methyl)phenyl)acetamide, reference compound], the pIC50 in experiment [2] and in experiment [3] was less than 5.00 each time.
On to `C=C(C)C(=O)Nc1cccc(Cn2ncc3cnc(Nc4cnn(C)c4)nc32)c1` [Example 5, N-(3-((6-((1-Methyl-1H-pyrazol-4-yl)amino)-1H-pyrazolo[3,4-d]pyrimidin-1-yl)methyl)phenyl)methacrylamide], for which the figures for the pIC50 in experiment [1], in experiment [2] and in experiment [3] were 5.70, less than 5.00 and less than 5.00, respectively.
In the case of `C=CS(=O)(=O)Nc1cccc(Cn2ncc3cnc(Nc4cnn(C)c4)nc32)c1` [Example 4, N-(3-((6-((1-Methyl-1H-pyrazol-4-yl)amino)-1H-pyrazolo[3,4-d]pyrimidin-1-yl)methyl)phenyl)ethenesulfonamide], the pIC50 in experiment [1] was 7.13; in experiment [2] it was less than 5.00; in experiment [3], less than 5.00.
On to `C=CC(=O)Nc1cccc(Cn2ncc3cnc(Nc4cnn(C)c4)nc32)c1` [Example 1, N-(3-((6-((1-Methyl-1H-pyrazol-4-yl)amino)-1H-pyrazolo[3,4-d]pyrimidin-1-yl)methyl)phenyl)acrylamide], for which the pIC50 in experiment [1] was 7.51; in experiment [2], less than 5.00; in experiment [3] it was less than 5.00.
